Measurements taken from patent publication US20130196903A1 (priority 2010, published 2013).

Assays:
[1] = test system: wild-type (WT) strain of Measles Virus (MV); assay: Antiviral activity against a wild-type strain of Measles Virus; format: cell-based
Description: The antiviral activity of a cholesterol-derivatized inhibitors derived from the sequence of Human Parainfluenza virus type 3 (HPIV3) was tested against a wild-type (WT) strain of Measles Virus (MV).

dengue virus = dengue virus infectivity; cited from earlier work

Row | Substance | fold more potent than the underivatized peptide [1] [fold] | antiviral activity (dengue virus)
1 | Ac-VALDPIDISIVLNKAKSDLEESKEWIRRSNGKLDSIGSGSG-C(PEG4-Chol) (Ac-VALDPIDISIVLNKAKSDLEESKEWIRRSNGKLDSIGSGSG-{C(PEG4-cholesterol)}) | 5 | –
2 | [(Ac-VALDPIDISIVLNKAKSDLEESKEWIRRSNGKLDSIGSGSG-C(Mal-PEG4)]2-Chol | 250 | –
3 | AWDFGSLGGVFTSIGKALHQVF (Dengue virus 2 (DV2)) [DV2^419-440] | – | very weak antiviral activity
